This note sets out measurements from ChEMBL document CHEMBL1201862, “PubChem BioAssay data set” (2004).

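Each compound was tested at five concentrations against cells in 96-well plates for 48 hours. The concentration for 50% growth inhibition is given as GI50.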 Activity calls are given as the source filed them. Rule as the data show it: active = GI50 up to about 1.1 µM and inactive = higher. Where only a bound is given, the exact number is not on record here.

Among the test systems are MCF7; HT-29; ACHN; DU-145; SNB-19; SK-MEL-5; NCI/ADR-RES; MDA-MB-231; EKVX; CCRF-CEM; RPMI-8226; T47D; HCT-116; U-251; SR; COLO 205; NCI-H23; SNB-75; HCC 2998; HOP-92.
What all share (test): NCI tumour cell line growth inhibition, 48 h

`Cc1cc(O)c(C(c2cccnc2)c2c(O)cc(C)[nH]c2=O)c(=O)[nH]1`: the GI50 in the assay with MCF7, with HT-29, with ACHN, in the assay on DU-145, in the assay on SNB-19 and in the assay with SK-MEL-5 was > 100 µM (inactive) in each case. The GI50 with NCI/ADR-RES, in the assay on MDA-MB-231, with EKVX, in the assay with CCRF-CEM, in the assay with RPMI-8226 and with T47D was > 100 µM (inactive) throughout. Also, the GI50 with HCT-116, in the assay with U-251, in the assay with SR, in the assay with COLO 205 and in the assay on NCI-H23 was > 100 µM (inactive) in each case.

As for `O=c1[nH]nc(Cc2ccccc2)n1C1CCCC1`, the GI50 with MCF7, with HT-29, with ACHN, in the assay with DU-145, with SNB-19 and in the assay with SK-MEL-5 was > 100 µM (inactive) throughout. Also, the GI50 in the assay with SNB-75, with NCI/ADR-RES, in the assay on HCC 2998, in the assay with MDA-MB-231, in the assay on EKVX and in the assay with CCRF-CEM was > 100 µM (inactive) each time. For the same compound, the GI50 in the assay on RPMI-8226, with T47D, in the assay on HCT-116, in the assay with U-251, with SR and in the assay on COLO 205 was > 100 µM (inactive) each time. Besides, in the assay with NCI-H23, the GI50 is > 100 µM (inactive).

As to `O=C1SC(c2ccc(Cl)cc2)(c2ccc(Cl)cc2)c2ccccc21`, the GI50 is 48.8 µM (inactive) with MCF7; 38.5 µM (inactive) with HT-29; 91 µM (inactive) with ACHN; 89.1 µM (inactive) in the assay with DU-145; > 100 µM (inactive) in the assay on SNB-19; 52.8 µM (inactive) with SK-MEL-5. The GI50 is > 100 µM (inactive) with SNB-75; > 100 µM (inactive) in the assay on NCI/ADR-RES; 38.3 µM (inactive) in the assay on HCC 2998; > 100 µM (inactive) in the assay with MDA-MB-231; 81.5 µM (inactive) in the assay with HOP-92; 86.7 µM (inactive) with EKVX. Besides, the GI50 in the assay on CCRF-CEM was 36.2 µM (inactive); in the assay with RPMI-8226, 55.8 µM (inactive); with T47D, 69 µM (inactive); in the assay on HCT-116 it was 13.3 µM (inactive); with U-251 it was > 100 µM (inactive); in the assay on COLO 205, 83 µM (inactive). In the assay on NCI-H23, the GI50 is 59.4 µM (inactive).

As to `NN/C(=N\S(=O)(=O)c1cccc2nsnc12)Nc1ccc(Cl)cc1`, the GI50 in the assay on MCF7, in the assay on HT-29, in the assay on ACHN, with DU-145, in the assay with SNB-19 and in the assay with SK-MEL-5 was > 100 µM (inactive) each time. In addition, the GI50 is 65.9 µM (inactive) in the assay on SNB-75; > 100 µM (inactive) in the assay with NCI/ADR-RES; > 100 µM (inactive) with MDA-MB-231; > 100 µM (inactive) in the assay with HOP-92; > 100 µM (inactive) in the assay with EKVX; > 100 µM (inactive) in the assay on CCRF-CEM. Further, the GI50 is > 100 µM (inactive) in the assay on RPMI-8226; 48.6 µM (inactive) with T47D; > 100 µM (inactive) in the assay on HCT-116; > 100 µM (inactive) with U-251; > 100 µM (inactive) in the assay on SR; > 100 µM (inactive) in the assay on COLO 205. Also, the GI50 in the assay on NCI-H23 was > 100 µM (inactive).

For `O=C1NC(=S)NC(=O)C1=C/C=C/c1ccc([N+](=O)[O-])cc1`, the GI50 in the assay on MCF7 was 14 µM (inactive); in the assay with HT-29 it was 23.8 µM (inactive); in the assay on ACHN, 18 µM (inactive); with DU-145 it was 16.1 µM (inactive); in the assay with SNB-19, 17.1 µM (inactive); with SK-MEL-5, 19.3 µM (inactive). Further, the GI50 in the assay on SNB-75 was 19.2 µM (inactive); with NCI/ADR-RES, 13.1 µM (inactive); with HCC 2998, 18.4 µM (inactive); with MDA-MB-231 it was 18.2 µM (inactive); with HOP-92 it was 14.4 µM (inactive); in the assay with EKVX it was 17.9 µM (inactive). The GI50 was 2.32 µM (inactive) with CCRF-CEM; 7.24 µM (inactive) in the assay with RPMI-8226; 24.9 µM (inactive) in the assay with T47D; 17.8 µM (inactive) in the assay with HCT-116; 4 µM (inactive) in the assay with U-251; 13.2 µM (inactive) with COLO 205. Further, the GI50 with NCI-H23 is 13.9 µM (inactive).

As for `Cc1ccc(S(=O)(=O)N/N=C2/CCC(C(C)(C)C)CC2Br)cc1` (configuration not stated), the GI50 in the assay on MCF7 is 22.7 µM (inactive); in the assay with HT-29, 29.4 µM (inactive); in the assay on ACHN it was 34.1 µM (inactive); with DU-145, 42.6 µM (inactive); in the assay with SNB-19, 36.6 µM (inactive); with SK-MEL-5, 15.5 µM (inactive). In addition, the GI50 in the assay with SNB-75 was 27.4 µM (inactive); in the assay on NCI/ADR-RES, 17.6 µM (inactive); with MDA-MB-231 it was 37.9 µM (inactive); with HOP-92, 26.1 µM (inactive); with EKVX, 36.6 µM (inactive); with CCRF-CEM, 24.5 µM (inactive). Moreover, the GI50 is 28.4 µM (inactive) in the assay with RPMI-8226; 27.4 µM (inactive) in the assay on T47D; 23.1 µM (inactive) in the assay on HCT-116; 8.24 µM (inactive) in the assay with U-251; 39 µM (inactive) in the assay on SR; 27.2 µM (inactive) in the assay with COLO 205. The GI50 in the assay with NCI-H23 was 28 µM (inactive).

`Cc1ccc2c(c1)C(=O)c1nc(C)ccc1C2=O`: the GI50 with MCF7 was 25.6 µM (inactive); with HT-29 it was 17 µM (inactive); in the assay on ACHN, 33.3 µM (inactive); in the assay with DU-145, 32.3 µM (inactive); in the assay with SNB-19, 22.4 µM (inactive); with SK-MEL-5, 6.9 µM (inactive). For the same compound, the GI50 in the assay with SNB-75 was 29.8 µM (inactive); with NCI/ADR-RES it was 21.4 µM (inactive); in the assay on HCC 2998 it was 34.9 µM (inactive); with MDA-MB-231 it was 13.9 µM (inactive); with EKVX, 29.4 µM (inactive); with CCRF-CEM, 27.9 µM (inactive). For the same compound, the GI50 is 21.3 µM (inactive) with RPMI-8226; 38.3 µM (inactive) in the assay with T47D; 23.9 µM (inactive) in the assay on HCT-116; 35.5 µM (inactive) with U-251; 47.1 µM (inactive) with SR; 17.3 µM (inactive) in the assay with COLO 205. Also, the GI50 in the assay on NCI-H23 was 19.5 µM (inactive).

As to `COc1ccccc1-n1c(=O)n(C)c(=O)n1C(C)(C)C`, the GI50 in the assay on MCF7, in the assay with HT-29, in the assay on DU-145, with SNB-19, with SK-MEL-5 and with SNB-75 was > 100 µM (inactive) each time. Further, the GI50 with NCI/ADR-RES was > 100 µM (inactive); in the assay on HCC 2998, 0.288 µM (active); in the assay with MDA-MB-231, > 100 µM (inactive); in the assay on EKVX, > 100 µM (inactive); in the assay on CCRF-CEM it was > 100 µM (inactive); with RPMI-8226 it was > 100 µM (inactive). Further, the GI50 in the assay on T47D, in the assay on HCT-116, in the assay with U-251, with SR, with COLO 205 and in the assay with NCI-H23 was > 100 µM (inactive) each time.

`Cc1cccc(Nc2nn3c(=O)c4c5c(sc4nc3s2)CCCC5)c1`: the GI50 with MCF7 was 6.17 µM (inactive); in the assay with HT-29, 10.4 µM (inactive); with ACHN, 7.71 µM (inactive); in the assay with DU-145, > 100 µM (inactive); with SNB-19, > 100 µM (inactive); in the assay on SK-MEL-5, 2.4 µM (inactive). The GI50 in the assay with SNB-75 was 23.2 µM (inactive); in the assay on NCI/ADR-RES, 11.1 µM (inactive); with MDA-MB-231 it was 8.09 µM (inactive); in the assay on HOP-92 it was 26.4 µM (inactive); in the assay with CCRF-CEM it was 56.5 µM (inactive); in the assay with T47D, 9.82 µM (inactive). For the same compound, the GI50 was 22.9 µM (inactive) with HCT-116; 46.2 µM (inactive) in the assay with U-251; 25.4 µM (inactive) with SR; 3.69 µM (inactive) in the assay on COLO 205; 14 µM (inactive) in the assay on NCI-H23.

On to `COc1ccc(C(=O)c2[nH]c(Nc3cc(C)ccn3)c(C(=S)Nc3ccccc3)c2N)cc1`, for which the GI50 is 20.4 µM (inactive) with MCF7; 17.5 µM (inactive) in the assay on HT-29; 30.4 µM (inactive) in the assay on ACHN; 36.6 µM (inactive) with DU-145; 18.8 µM (inactive) in the assay on SNB-19; 20.5 µM (inactive) with SNB-75. The GI50 was 3.49 µM (inactive) in the assay with NCI/ADR-RES; 17.1 µM (inactive) in the assay with HCC 2998; 20 µM (inactive) in the assay with MDA-MB-231; 22.3 µM (inactive) in the assay on EKVX; 13.3 µM (inactive) in the assay with RPMI-8226; 51.2 µM (inactive) in the assay with T47D. Also, the GI50 is 20.7 µM (inactive) in the assay with HCT-116; 15.3 µM (inactive) in the assay with U-251; 15.2 µM (inactive) with SR; 19.4 µM (inactive) in the assay with COLO 205; 21.9 µM (inactive) in the assay with NCI-H23.

For the compound `O=C(O)Cc1cccc2c1OC(c1ccccc1)C(C(=O)c1ccccc1)C2=O` (configuration not stated), the GI50 in the assay with MCF7 is 34.6 µM (inactive); with HT-29, > 10 µM (inactive); in the assay with ACHN, 40.3 µM (inactive); in the assay on DU-145, 69 µM (inactive); in the assay on SNB-19, 45.9 µM (inactive); in the assay on SK-MEL-5, > 100 µM (inactive). Moreover, the GI50 in the assay with SNB-75 was 12.2 µM (inactive); in the assay on NCI/ADR-RES it was > 100 µM (inactive); with HCC 2998, 20.4 µM (inactive); in the assay on MDA-MB-231 it was 32.7 µM (inactive); in the assay on EKVX it was 36.2 µM (inactive); in the assay with CCRF-CEM, 41.2 µM (inactive). Moreover, the GI50 with RPMI-8226 is 33.6 µM (inactive); with T47D it was 10.1 µM (inactive); in the assay on HCT-116 it was 33 µM (inactive); in the assay with U-251 it was 40.9 µM (inactive); with SR it was 39.3 µM (inactive); in the assay with COLO 205, 67.6 µM (inactive). Moreover, the GI50 in the assay with NCI-H23 was 29.5 µM (inactive).
